The values that follow come from US20260308145A1, “CDK2 INHIBITORS AND METHODS OF USING SAME” (Shenzhen lonova Life Science Co., Ltd., priority 2023, published 2026).

Structures are written as SMILES.

Holding throughout (format): biochemical
One assay has as its target T1, CDK1/cyclinB1 (Homo sapiens, UniProt P06493).
T1 construct: purchased Carna Biosciences 04-102
Description: Cyclin-dependent kinase activity assay (continuous ATP coupling assay), CDK1/cyclinB1. The following applies: CDK1/cyclinB1 10 nM, ATP 200 μM, Histone1 copeptide 100 μM, 15 min preincubation, pH 7.5, 1% DMSO. In a few lines:
(§1)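 PK/LDH-coupled continuous assay, ATP at each kinase's Km, Tris pH 7.5 with 1% DMSO final; enzyme preincubated 15 min with compound (10 μM to 0.05 nM, 1:3), NADH fluorescence decrease (ex 340/em 460) gave velocities. IC50 by 4-variable fit; Ki by quadratic/Morrison fit.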

The next assay addresses T2, CDK6/cyclinD3 (Homo sapiens, UniProt Q00534).
T2 construct: purchased Carna Biosciences 04-107
Description: Cyclin-dependent kinase activity assay (continuous ATP coupling assay), CDK6/cyclinD3. The following applies: CDK6/cyclinD3 25 nM, ATP 500 μM, Rb copeptide 500 μM, 15 min preincubation, pH 7.5, 1% DMSO. In a few lines: as §1

Another assay concerns the target T3, CDK2/cyclinE1 (Homo sapiens, UniProt P24941).
T3 construct: purchased Carna Biosciences 04-165
Kind of assay: Cyclin-dependent kinase activity assay (continuous ATP coupling assay), CDK2/cyclinE1. Conditions: CDK2/cyclinE1 5 nM, ATP 300 μM, Rb copeptide 100 μM, 15 min preincubation, pH 7.5, 1% DMSO. In a few lines:
as §1

For another assay, the target named is T4, CDK4/cyclinD3 (Homo sapiens, UniProt P11802).
T4 construct: purchased Carna Biosciences 04-105
Kind of assay: Cyclin-dependent kinase activity assay (continuous ATP coupling assay), CDK4/cyclinD3. Conditions: CDK4/cyclinD3 60 nM, ATP 500 μM, Rb copeptide 500 μM, 15 min preincubation, pH 7.5, 1% DMSO. In a few lines: as §1

T2 sequence (Q00534 whole entry): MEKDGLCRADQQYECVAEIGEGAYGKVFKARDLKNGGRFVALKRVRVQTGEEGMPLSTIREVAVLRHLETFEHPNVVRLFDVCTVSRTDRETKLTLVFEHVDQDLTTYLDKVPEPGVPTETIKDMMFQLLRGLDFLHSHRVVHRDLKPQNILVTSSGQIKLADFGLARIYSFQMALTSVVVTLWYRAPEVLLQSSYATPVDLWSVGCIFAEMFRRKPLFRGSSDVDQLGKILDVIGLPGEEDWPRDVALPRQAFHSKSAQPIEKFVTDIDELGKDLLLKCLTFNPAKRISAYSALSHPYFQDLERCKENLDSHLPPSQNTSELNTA
T2 sequence (P30281 whole entry partner): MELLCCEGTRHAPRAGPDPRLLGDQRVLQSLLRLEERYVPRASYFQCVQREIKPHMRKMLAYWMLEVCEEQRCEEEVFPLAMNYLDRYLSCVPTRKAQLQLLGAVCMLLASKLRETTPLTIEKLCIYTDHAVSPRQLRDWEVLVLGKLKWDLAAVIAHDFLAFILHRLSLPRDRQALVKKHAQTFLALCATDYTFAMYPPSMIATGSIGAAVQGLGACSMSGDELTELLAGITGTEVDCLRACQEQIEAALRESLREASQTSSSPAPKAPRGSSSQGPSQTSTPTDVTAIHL
T1 sequence (P06493 whole entry): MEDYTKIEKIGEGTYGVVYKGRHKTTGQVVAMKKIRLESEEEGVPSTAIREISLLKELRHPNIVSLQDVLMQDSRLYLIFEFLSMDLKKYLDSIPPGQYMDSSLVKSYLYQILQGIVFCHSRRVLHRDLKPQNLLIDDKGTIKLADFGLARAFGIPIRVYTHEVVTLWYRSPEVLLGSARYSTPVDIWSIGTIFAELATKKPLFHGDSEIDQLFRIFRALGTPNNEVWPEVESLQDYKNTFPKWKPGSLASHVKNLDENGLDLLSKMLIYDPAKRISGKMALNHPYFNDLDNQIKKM
T1 sequence (P14635 whole entry partner): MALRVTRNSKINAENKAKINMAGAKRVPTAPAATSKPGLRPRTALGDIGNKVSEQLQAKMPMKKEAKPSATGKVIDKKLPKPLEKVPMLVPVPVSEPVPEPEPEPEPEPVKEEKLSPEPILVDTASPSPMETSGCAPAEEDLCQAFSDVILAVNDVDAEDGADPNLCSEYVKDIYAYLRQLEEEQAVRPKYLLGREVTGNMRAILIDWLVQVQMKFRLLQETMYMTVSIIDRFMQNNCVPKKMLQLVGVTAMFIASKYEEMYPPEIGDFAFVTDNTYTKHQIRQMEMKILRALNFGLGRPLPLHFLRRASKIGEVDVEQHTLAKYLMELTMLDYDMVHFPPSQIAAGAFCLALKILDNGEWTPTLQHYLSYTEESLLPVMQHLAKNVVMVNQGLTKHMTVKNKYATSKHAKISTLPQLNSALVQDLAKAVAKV
T4 sequence (P11802 whole entry): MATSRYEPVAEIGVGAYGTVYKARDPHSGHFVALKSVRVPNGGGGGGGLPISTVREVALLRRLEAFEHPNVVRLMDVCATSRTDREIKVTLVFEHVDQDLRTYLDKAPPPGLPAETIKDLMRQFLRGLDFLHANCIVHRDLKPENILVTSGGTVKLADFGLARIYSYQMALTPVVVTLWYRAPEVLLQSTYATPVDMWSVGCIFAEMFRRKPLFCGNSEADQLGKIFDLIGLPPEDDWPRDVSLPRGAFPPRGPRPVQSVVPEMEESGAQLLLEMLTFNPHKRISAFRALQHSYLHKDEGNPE
T4 sequence (P30281 whole entry partner): as the sequence (P30281 whole entry partner) above

A word on the IC50: it is the concentration that gives 50% inhibition. As for `CNS(=O)(=O)c1ccc(Nc2ncc(C(F)(F)F)c(-n3cc(C4CC4(F)F)cn3)n2)cc1` (single isomer, unassigned) [Example 53, 4-[[4-[4-(2,2-difluorocyclopropyl)pyrazol-1-yl]-5-(trifluoromethyl)pyrimidin-2-yl]amino]-N-methyl-benzenesulfonamide], the IC50 on CDK1/cyclinB1 was at least 100 nM; on CDK6/cyclinD3, at least 100 nM; at CDK2/cyclinE1, 10 to 100 nM; at CDK4/cyclinD3, at least 100 nM.
As to `CNS(=O)(=O)c1ccc(Nc2ncc(C(F)(F)F)c(-n3cc(C4CCOC4)cn3)n2)cc1` (single isomer, unassigned) [Example 90], the IC50 at CDK1/cyclinB1 was at least 100 nM; at CDK6/cyclinD3, 10 to 100 nM; at CDK2/cyclinE1, 10 to 100 nM; against CDK4/cyclinD3 it was 10 to 100 nM.
For the molecule `[2H]C([2H])([2H])NS(=O)(=O)c1ccc(Nc2ncc(C(F)(F)F)c(-n3cccn3)n2)cc1` [Example 17], the IC50 at CDK1/cyclinB1 was at least 100 nM; against CDK6/cyclinD3, at least 100 nM; against CDK2/cyclinE1, at most 10 nM; at CDK4/cyclinD3, at least 100 nM.
`NS(=O)(=O)c1ccc(Nc2ncc(C(F)(F)F)c(-n3cccn3)n2)c(F)c1` [Example 28]: the IC50 against CDK1/cyclinB1 was at least 100 nM; against CDK6/cyclinD3, at least 100 nM; on CDK2/cyclinE1, 10 to 100 nM; against CDK4/cyclinD3, at least 100 nM.
As for `O=S(=O)(NC1(CO)CC1)c1ccc(Nc2ncc(C(F)(F)F)c(-n3cccn3)n2)cc1` [Example 135], the IC50 against CDK1/cyclinB1 is at least 100 nM; against CDK6/cyclinD3, at least 100 nM; against CDK2/cyclinE1, at most 10 nM; at CDK4/cyclinD3, at least 100 nM.
In the case of `O=S(=O)(CCCO)c1ccc(Nc2ncc(C(F)(F)F)c(-n3cccn3)n2)cc1` [Example 130, 3-[4-[[4-pyrazol-1-yl-5-(trifluoromethyl)pyrimidin-2-yl]amino]phenyl]sulfonylpropan-1-ol], the IC50 was at least 100 nM against CDK1/cyclinB1, at least 100 nM at CDK6/cyclinD3, 10 to 100 nM on CDK2/cyclinE1 and at least 100 nM at CDK4/cyclinD3.
On to `O=S(=O)(NCCO)c1ccc(Nc2ncc(F)c(-n3cccn3)n2)cc1` [Example 115], for which the IC50 against CDK1/cyclinB1 is at least 100 nM; against CDK6/cyclinD3, at least 100 nM; on CDK2/cyclinE1, 10 to 100 nM; against CDK4/cyclinD3 it was at least 100 nM.
As for `O=S(=O)(NC1CC1)c1ccc(Nc2ncc(C(F)(F)F)c(-n3cccn3)n2)cc1` [Example 30], the IC50 is at least 100 nM on CDK1/cyclinB1, at least 100 nM against CDK6/cyclinD3, 10 to 100 nM on CDK2/cyclinE1 and at least 100 nM against CDK4/cyclinD3.
`CNS(=O)(=O)c1ccc(Nc2ncc(C(F)(F)F)c(-n3cc(C(C)(C)CO)cn3)n2)cc1` [Example 59]: the IC50 was 10 to 100 nM on CDK1/cyclinB1, 10 to 100 nM against CDK6/cyclinD3, at most 10 nM on CDK2/cyclinE1 and 10 to 100 nM on CDK4/cyclinD3.
With `CNS(=O)(=O)c1ccc(Nc2ncc(C(F)(F)F)c(-n3cc(C4CCN(C(C)C)CC4)cn3)n2)cc1` [Example 82], the IC50 at CDK1/cyclinB1 was 10 to 100 nM; at CDK6/cyclinD3 it was at least 100 nM; against CDK2/cyclinE1, at most 10 nM; against CDK4/cyclinD3, 10 to 100 nM.
On to `CNS(=O)(=O)c1ccc(Nc2ncc(C(F)(F)F)c(-n3cc(CC(C)(C)O)c(C)n3)n2)cc1` [Example 70], for which the IC50 against CDK1/cyclinB1 was at least 100 nM; against CDK6/cyclinD3, at least 100 nM; at CDK2/cyclinE1, 10 to 100 nM; on CDK4/cyclinD3, at least 100 nM.
